Literature values in patent US10695734B2, “Microcapsule comprising a polyester-urethane shell and a hydrophilic core material” (BASF SE, priority 2015, dated 2020).
Where a name gives a salt, the structure may show the parent alone.

Conditions: at 20° C.

COc1c(Cl)ccc(Cl)c1C(=O)O [dicamba sodium salt]
water solubility: > 100 mg/mL

O=C(O)CNCP(=O)(O)O [glyphosate potassium salt]
water solubility: > 500 mg/mL
